Data set [1] concerns patients with recurrent or residual cervical carcinoma. Particulars: cited from earlier work.
The test system of another data set is PBMC from normal donors. It counts as cell-based, human.

This is an account of results in patent US6602510B1, “HLA class I A2 tumor associated antigen peptides and vaccine compositions” (priority 2000, dated 2003).

As for aKXVAAWTLKAAa-NH2, the responding patients in data set [1] (95% interval 10-65%) is recorded as 33%. The safety entry in data set [1] (co-emulsified with HPV-derived CTL epitopes) is on record as “favorable safety profile”.
With QYIKANSKFIGITE [Epitope 553.01], in the data set with PBMC from normal donors, the “antigen concentration at which the 10,000 cpm proliferation level was reached” value is given as “about 10,000 ng/ml”.
